Measurements taken from patent US20210137903A1, “ANTI-ANDROGENS FOR THE TREATMENT OF PROSTRATE CANCER” (priority 2019, published 2021).
Where two headings read alike, the source gives them in different places.

Experiments:
[1] = Example 1 relative bioavailability study: safety evaluations; format: in vivo, human
Description: Safety: Safety was evaluated throughout the study by means of adverse events (AEs), laboratory safety (hematology and serum chemistry), electrocardiograms (ECGs), vital signs (blood pressure, pulse, respiratory rate, and body temperature), and physical examinations (see the Time and Events Schedule in FIG. 1 for details).
Safety: Baseline for all laboratory evaluations, 12-lead ECG measurements, and vital signs were defined as the last evaluation done before the first study drug administration. Safety was evaluated by examining the incidence and type of adverse events, and changes in clinical laboratory test values, physical examination results, 12-lead ECGs, and vital sign measurements from the screening phase through study completion, including the washout intervals and the End-of-Study visit.
All subjects who were randomly assigned to treatment and received at least one dose of the study drug were included in the safety analysis.
The verbatim terms used in the CRF by investigators to identify adverse events was coded using the Medical Dictionary for Regulatory Activities (MedDRA). All reported adverse events with onset during the treatment phase (ie, treatment-emergent adverse events, and adverse events that have worsened since baseline) were included in the analysis. For each adverse event, the percentage of subjects who experience at least 1 occurrence of the given event was summarized by treatment group.
The severity assessment for an adverse event/serious adverse event was completed using the NCI-CTCAE Version 5.0. Any adverse event/serious adverse event not listed in the NCI-CTCAE was graded by the investigator using the standard grades as follows: […]

[2] = Single 240-mg dose pharmacokinetics in healthy subjects (earlier studies); format: in vivo, human
Text: Apalutamide is a Biopharmaceutics Classification System Class II drug (highly permeable and poorly soluble). The commercialized formulation is a spray dried powder of amorphous apalutamide.

[3] = Single-dose 14C-apalutamide absolute bioavailability and microtracer study; set-up: species or system human; details: in vivo
[4] = Dosing accuracy, chemical stability and appearance of apalutamide tablets dispersed in applesauce (UHPLC); format: physicochemical
Description: The tablet core weight was 700 mg. […] Appearance was determined visually. Dosing accuracy and chemical stability (the concentration and impurities) were measured using the following UHPLC Procedure. The reagents used in the UHPLC procedure were demineralized water, ammonium acetate, trifluoroacetic acid and acetonitrile. Mobile Phase A was a 10 mM NH4Ac+01% TFA/Acetonitrile (90/10 v/v) solution prepared as follows. 0.77 g Ammonium acetate (NH4Ac) was transferred into a 1000 mL volumetric flask. […] Mobile Phase B was acetonitrile. Sample solutions were prepared as described in the individual examples which follow hereinafter. [table] For chemical stability (chromatographic characteristics) the identity of impurities were assigned based on comparison of their Relative Retention Times (RRT) to known retention times, or retention times determined using reference solutions. […] The mixture was gently mixed in the container with a spatula for 10 seconds and the time recorded. The hold time of the sample was calculated against the moment the tablets were added to the mixture. After 15 minutes, the mixture was again gently mixed with a spatula for 10 seconds and the time recorded. After an additional 15 minutes, the mixture was again gently mixed with a spatula for until a uniform mixture was formed (at least 10 seconds) and the time recorded. […]

Compound: CNC(=O)c1ccc(N2C(=S)N(c3cnc(C#N)c(C(F)(F)F)c3)C(=O)C23CCC3)cc1F [apalutamide, 4-[7-(6-cyano-5-trifluoromethylpyridin-3-yl)-8-oxo-6-thioxo-5,7-diazaspiro[3.4]oct-5-yl]-2-fluoro-N-methylbenzamide]
- deaths or serious TEAEs ([1]; in vivo): no deaths or serious TEAEs
- overall safety and tolerability of 240 mg as whole tablets and as dispersed tablets in applesauce ([1]; in vivo): safe and generally well tolerated
- subjects with QTcB or QTcF increase of >60 ms from baseline ([1]; in vivo): No subjects
- subjects with QTcB or QTcF values of >480 ms ([1]; in vivo): No subjects
- AE leading to treatment discontinuation ([1]; n (%)): 1 (8.3%)
- AE leading to treatment discontinuation: >=Grade 3 ([1]; n (%)): 0
- AE leading to treatment discontinuation: Drug-related to Treatment A ([1]; n (%)): 0
- AE leading to treatment discontinuation: Drug-related to Treatment B ([1]; n (%)): 1 (8.3%)
- AE leading to treatment discontinuation: Grade 1 ([1]; n (%)): 1 (8.3%)
- AE leading to treatment discontinuation: Grade 2 ([1]; n (%)): 0
- Serious TEAE: >=Grade 3 ([1]; n (%)): 0
- Serious TEAE: Drug-related to Treatment A ([1]; n (%)): 0
- Serious TEAE: Drug-related to Treatment B ([1]; n (%)): 0
- Serious TEAE: Grade 1 ([1]; n (%)): 0
- Serious TEAE: Grade 2 ([1]; n (%)): 0
- Serious Treatment Emergent Adverse Events ([1]; n (%)): 0
- Treatment Emergent Adverse Events: Drug-related to Treatment A ([1]; n (%)): 4 (33.3%)
- Treatment Emergent Adverse Events: Drug-related to Treatment B ([1]; n (%)): 4 (33.3%)
- subjects with TEAE gynecomastia ([1]; n (%)): 3 (25.0%)
- subjects with sexual side effects ([1]; n (%)): 3 (25.0%)
- Treatment Emergent Adverse Events, subjects ([1]; n (%) of subjects treated): 5 (41.7%)
- Treatment Emergent Adverse Events: >=Grade 3 ([1]; worst grade, n (%)): 0
- Treatment Emergent Adverse Events: Grade 1 ([1]; worst grade, n (%)): 4 (33.3%)
- Treatment Emergent Adverse Events: Grade 2 ([1]; worst grade, n (%)): 1 (8.3%)
- Cmax lower with a high-fat meal compared to fasted ([2]; fed vs fasted): approximately 16%
- extent of absorption based on AUC∞ under fed conditions ([2]; fed vs fasted): remained unchanged
- bioavailability ([2]; human, in vivo, oral, single dose 240 mg, read-out: absolute bioavailability): ~100%
- Cmax ([2]; human, plasma, oral, 240 mg, N=15, read-out: mean single dose plasma Cmax): ~2.4 µg/mL
- half-life ([2]; human, plasma, oral, 240 mg, human, read-out: half-life (converted)): ~168 h
- Cmax ([2]; human, plasma, oral, 240 mg, read-out: mean Cmax from a similar study): 2.42 µg/mL
- half-life ([2]; human, plasma, oral, 240 mg, read-out: mean elimination half-life (t1/2) (converted)): ~162 h
- AUC(0-t) ([2]; human, plasma, oral, 240 mg, N=15, read-out: AUC0-168 h from another bioavailability study): 121 µg·h/mL
- AUC ([2]; human, plasma, oral, 240 mg, N=15, read-out: mean AUC28): 225 µg·h/mL
- Tmax ([2]; human, plasma, oral, single 240-mg dose, tablet, healthy subjects, read-out: median Tmax): 2 to 3 h
- Fabs ([2]; single dose 240 mg): 1.11
- 14C-radioactivity excreted via feces (arithmetic mean) [3]: 24.3%
- total 14C-radioactivity excreted in urine (arithmetic mean) [3]: 64.2%
- total administered 14C-radioactive dose recovered [3]: 88.9%
- time the drug was found to be stable in applesauce [4]: at least 6 hours
